Measurements as given in patent publication US9834514B2, “Antibiotic sensitivity-restoring and photosensitive agents” (New Mexico Tech Research Foundation, priority 2015, dated 2017).
Values after ≈ are worked out from the molar mass of the structure shown. Read-outs that look alike come from different tables or passages of the source.

How the values were obtained:
[1] = system: VRE; test: MIC against VRE; format: cell-based, Enterococcus faecalis
Description: In a 12×75 mm borosilicate glass culture tube, 1 mL of cell suspension was added. Then, compound 7 was added to the cells, and the samples were mixed using a vortex mixer. […] The samples were incubated overnight at 37° C. on a rotary shaking incubator at 100 rpm.

[2] = system: MRSA; test: MIC of a compound of the invention and ampicillin, alone and in combination; format: cell-based
Excerpt: Compounds of the invention can increase the potency of antibiotics. […] The ability of compounds of the invention to synergize with structurally and mechanistically unrelated antibiotics can be a result of the inhibition of bacterial efflux.

[3] = system: MRSA; test: Minimum bactericidal concentration (MBC) with and without white light; format: cell-based, S. aureus; details: Staphylococcus aureus, light or radiation study
Description: The bacterial media was inoculated with bacteria and incubated overnight. The bacterial cultures were diluted to 5×10^8 CFU/mL using a McFarland latex turbidity standard (0.5). Compound 1 was diluted with sterile DMSO, which was added to the cell suspension in glass culture tubes. The cells were then incubated for 30 minutes at 37° C. on a rotary shaking incubator at 150 rpm. 500 μL of the treated cell suspension was added to a well on a sterile ceramic drop plate. Non-coherent white light from a Lumacare™ LC-122 unit was used to irradiate the samples. The end of the light probe was placed 3 cm above the sample well, perpendicular to the surface of the sample, and light was applied for 2 minutes (15 seconds light, 15 seconds dark). 200 μL of the irradiated sample was transferred to a 96-well plastic microtiter plate and five ten-fold dilutions were made in the media. 10 μL of each dilution was dripped onto an agar media plate and was allowed to streak down the plate by tilting the plate down. The agar plates were incubated at 37° C. overnight and colony counts were performed to calculate the CFU/mL.
TABLE 14 details the MBC values of compounds 1-6 against MRSA with and without irradiation with white light. Irradiation involved treatment with a LumaCare™ light source at 3 cm from media for 1 min.

[4] = system: MES-SA/Dx5 (human uterine sarcoma grown in presence of doxorubicin); test: Light-activated killing of cell lines (IC50 with/without light); format: cell-based; details: Homo sapiens
Description: (§1) TABLE 15 depicts the IC50 of compounds in the presence or absence of light for human cell lines. The cell lines used were HeLa (human cervical adenocarcinoma), U-87 MG (human brain gliobastoma), MES-SA (human uterine sarcoma), MES-SA/D×5 (human uterine sarcoma grown in presence of doxorubicin), NCI-H441 (human lung papillary adenocarcinoma), A549 (human lung carcinoma), WI-38 (human embryonic lung normal), MCF7 (human breast adenocarcinoma), SW1088 (human brain astrocytoma), B16F10 (mouse skin melanoma), NIH-3T3 (mouse fibroblast), and Jurkat (human lymphoblastoma). “1-Sol” in TABLE 15 was generated by dissolving compound 1 and potassium hydroxide at a 1:1 ratio in a DMSO/water solution. The cells were irradiated with continuous white light using a LumaCare™ light source for 2 minutes at a distance of 6.5 cm from the cells.

[5] = system: U-87 MG (human brain gliobastoma); test: as above; format: cell-based
Description: as §1

[6] = MIC against MRSA isolates; format: cell-based, S. aureus; details: Staphylococcus aureus
Description: The MICs of S. aureus ATCC 33591, BAA-44, BAA-1707, BAA-1717, BAA-1720, BAA-1747, BAA-1754, BAA-1761, BAA-1763, BAA-1764, and BAA-1766 were measured using a cell concentration of about 5×10^5 colony forming units (CFU)/mL. In a 96-well microtiter plate, two-fold dilutions were made of each drug (starting with 100 μM) in 100 μL of a cell suspension in trypticase soy broth (TSB). The samples were incubated overnight at 37° C. on a rotary shaking incubator set at 100 revolutions per minute (rpm) and were visually inspected for turbidity. A 20% well-volume of 3-(4,5-dimethylthiazol-2-yl)-2,5-diphenyltetrazolium bromide (MTT reagent, 5 mg/mL) was added, and the samples were incubated for about 20 minutes. The MICs were determined as the lowest concentration at which full visual inhibition was observed by the unaided eye.

[7] = system: S. aureus (ATCC 29213); test: MIC against drug sensitive S. aureus; format: cell-based; details: Staphylococcus aureus, ATCC29213; ATCC 29213; read-out: S. aureus MIC
[8] = system: S. aureus (ATCC 29213); test: microbe, parasite or virus in culture; format: cell-based; details: for MIC: Staphylococcus aureus
Description: Each mixture was incubated at 37° C. on a rotary shaking incubator for about 16 hours. MTT was then added to assess the viability of the cells (at 10% well volume). […] The cells were then streaked onto a TSA plate and incubated overnight at 37° C. These steps were repeated to reach a total of 30 exposures.

[9] = system: E. coli; test: MIC against E. coli; format: cell-based
Excerpt: TABLE 18 details the obtained MIC values for cells treated with compound 1, light, PMB, and Polymyxin E (PME) against E. coli.

[10] = system: P. aeruginosa; test: MIC against P. aeruginosa; format: cell-based
Excerpt: Only compound 1 was able to decrease the CFU/mL when used in conjunction with white light to treat P. aeruginosa.

[11] = system: E. cloacae ATCC BAA-2341; test: MIC of PMB and PME; format: cell-based
Excerpt: (§2) TABLE 25 details the MICs of PMB and PME against E. cloacae and K. pneumoniae.

[12] = system: K. pneumoniae ATCC BAA-2341; test: MIC of PMB and PME; format: cell-based; details: K. pneumoniae ATCC BAA-2341 (so in the source)
Excerpt: as §2

[13] = system: Klebsiella pneumoniae (CRE, ATCC BAA-1705); test: MIC against CRE; format: cell-based
Description: TABLE 27 details the individual MIC values of compounds 1, 7, 8, 9, 10, 11, PMB, PME, and light against CRE.
The MICs of PME and compounds 8-11 were determined against Klebsiella pneumoniae (CRE, ATCC BAA-1705). […] After the incubation with PME, the compounds were added at a concentration of 20 μM, and the samples were further incubated. At specific time points, the samples were taken and diluted ten-fold in media. Ten microliters of each dilution was then drip-streaked onto an agar plate and incubated overnight at 37° C. Colony counts were then performed and the CFU/mL were calculated.

[14] = system: A. baumannii (ATCC 15151); test: MIC against A. baumannii; format: cell-based
Description: TABLE 28 details the individual MIC values of compounds 1, 7, 8, 9, 10, 11, PMB, PME, and light against A. baumannii.
The MICs of PME and compounds 8-11 were determined against A. baumannii (ATCC 15151). […] After incubating the cells with PME, a compound (5 μM) was added, and the samples were further incubated at 37° C. At specific time points, samples were taken and diluted ten-fold in media. Ten microliters of each dilution was then drip-streaked onto an agar plate and incubated overnight at 37° C. Colony counts were then performed, and the CFU/mL were calculated.

[15] = system: Klebsiella pneumoniae (CRE, ATCC BAA-1705); test: Cell killing of CRE with compounds in presence or absence of PMB (CFU/mL); format: cell-based; details: PMB alone
Description: Klebsiella pneumoniae (CRE, ATCC BAA-1705) was grown in TSB overnight at 37° C. and diluted to about 5×10^5 CFU/mL using a McFarland Latex Turbidity standard (0.5). One mL of the cell suspension was transferred to a glass culture test tube. PMB was added to the cell suspension resulting in a final concentration of 200 μg/mL of PMB. The cell suspension was incubated at 37° C. on a rotary shaking incubator at 150 rpm for 4 hours. Compounds 1, 7, 8, 9, 10, and 11 were added to the cell suspension, resulting in a concentration of 20 μM for each of the compounds. The cell suspensions containing the compounds were incubated at 37° C. on a rotary shaking incubator at 150 rpm for 4 hours. Each sample was diluted tenfold to a 10^−5 dilution. Ten 10 microliters of each dilution from each sample was dripped onto a TSA plate and allowed to streak down the plate. The agar plates were incubated at 37° C. for 18-24 hours. Colony counts were performed and CFU/mL values were calculated.
The MICs of PMB and compounds 7-11 were determined against Klebsiella pneumoniae (CRE, ATCC BAA-1705). […] After the incubation with PMB, each of the compounds was added at a concentration of 20 μM, and the samples were incubated for an additional 18 hours. A sample was taken and diluted ten-fold in media. Ten microliters of each dilution was then drip-streaked onto an agar plate and incubated overnight at 37° C. Colony counts were then performed and the concentrations of cells (CFU/mL) were calculated.

[16] = Enterococcus, TABLE 23, read-out: VRE MIC
[17] = ATCC29213, read-out: Final MIC Apr. 16, 2015
[18] = ATCC29213, read-out: Initial MIC Mar. 10, 2015

## CC1(C)S[C@@H]2[C@H](NC(=O)[C@H](N)c3ccccc3)C(=O)N2[C@H]1C(=O)O [Ampicilin, ampicillin]
[1]; TABLE 24
  S/R: S
[1]; common antibiotics, TABLE 24
  MIC: 2 to 4 mg/L
[2]; combination versus alone
  fold decrease in concentration in combination: 8 fold
[2]; compound used in combination with ampicillin
  concentration needed for full killing in combination: about 572 μM
[2]; single agent
  mean inhibitory concentration (MIC), alone: about 4579 μM

## Fc1ccc(/C=C/c2[nH]c3ccccc3c2/C=C/c2ccc(F)cc2)cc1 [Compound 4]
[3]; 1 min, LumaCare light source at 3 cm from media for 1 min, read-out: MBC with irradiation
  MBC: 0.5 µM (≈ 0.179 µg/mL)
[3]; no irradiation, read-out: MBC in the dark
  MBC: 100 µM (≈ 35.7 µg/mL)
[4]; MES-SA/Dx5, 2 min, MES-SA/Dx5 (no doxorubicin), white light 2 minutes, read-out: Compound + light IC50
  IC50: 1.31 ± 0.51 µM
[4]; MES-SA/Dx5, 2 min, MES-SA/Dx5 + doxorubicin, white light 2 minutes, read-out: Compound + light IC50
  IC50: 0.67 ± 0.01 µM
[4]; MES-SA/Dx5, MES-SA/Dx5 (no doxorubicin), no light, read-out: Compound IC50
  IC50: 57.2 ± 10.3 µM
[4]; MES-SA/Dx5, MES-SA/Dx5 + doxorubicin, no light, read-out: Compound IC50
  IC50: 40.9 ± 1.36 µM
[5]; 2 min, white light 2 minutes, read-out: Compound + light IC50
  IC50: 1.01 ± 0.16 µM
[5]; no light, read-out: Compound IC50
  IC50: 42.6 ± 5.53 µM

## CCn1cc(C(=O)O)c(=O)c2cc(F)c(N3CCNCC3)cc21 [Norfloxacin, reference compound]
[6]; MRSA (ATCC BAA-44), TABLE 21, read-out: MRSA MIC
  MIC: 100 mg/L (≈ 313 µM)
[6]; antibiotics, MRSA isolate ATCC 33591, read-out: MIC
  MIC: 25 mg/L (≈ 78.3 µM)
[6]; antibiotics, MRSA isolate ATCC BAA-44, read-out: MIC
  MIC: 100 mg/L (≈ 313 µM)
[6]; antibiotics, MRSA isolate ATCC BAA-1707, read-out: MIC
  MIC: < 3.1 mg/L
[6]; antibiotics, MRSA isolate ATCC BAA-1720, read-out: MIC
  MIC: > 100 mg/L
[6]; antibiotics, MRSA isolate ATCC BAA-1747, read-out: MIC
  MIC: 6.3 mg/L (≈ 19.7 µM)
[6]; antibiotics, MRSA isolate ATCC BAA-1754, read-out: MIC
  MIC: < 3.1 mg/L
[6]; antibiotics, MRSA isolate ATCC BAA-1761, read-out: MIC
  MIC: > 100 mg/L
[6]; antibiotics, MRSA isolate ATCC BAA-1763, read-out: MIC
  MIC: > 100 mg/L
[6]; antibiotics, MRSA isolate ATCC BAA-1764, read-out: MIC
  MIC: < 3.1 mg/L
[6]; antibiotics, MRSA isolate ATCC BAA-1766, read-out: MIC
  MIC: < 3.1 mg/L
[1]; [16]
  MIC: 2.5 mg/L (≈ 7.83 µM)
[1]; Enterococcus, common antibiotics, TABLE 24, read-out: MIC
  MIC: 1 mg/L (≈ 3.13 µM)
[1]; TABLE 24
  S/R: S
[7]
  MIC: 1.25 to 2.5 mg/L (≈ 3.91 to 7.83 µM)
[8]
  Resistance Evolved: Yes
[8]; [17]
  MIC: > 16 µM
[8]; [18]
  MIC: 2 µM (≈ 0.639 µg/mL)

## Cc1onc(-c2ccccc2)c1C(=O)N[C@@H]1C(=O)N2[C@@H]1SC(C)(C)[C@@H]2C(=O)O [Oxacillin, reference compound]
[6]; antibiotics, MRSA isolate ATCC 33591
  MIC: > 100 mg/L
[6]; antibiotics, MRSA isolate ATCC BAA-44
  MIC: 400 mg/L (≈ 996 µM)
[6]; antibiotics, MRSA isolate ATCC BAA-1707
  MIC: < 3.1 mg/L
[6]; antibiotics, MRSA isolate ATCC BAA-1717
  MIC: 200 mg/L (≈ 498 µM)
[6]; antibiotics, MRSA isolate ATCC BAA-1720
  MIC: > 100 mg/L
[6]; antibiotics, MRSA isolate ATCC BAA-1747
  MIC: 6.3 mg/L (≈ 15.7 µM)
[6]; antibiotics, MRSA isolate ATCC BAA-1754
  MIC: 50 mg/L (≈ 125 µM)
[6]; antibiotics, MRSA isolate ATCC BAA-1761
  MIC: 6.3 mg/L (≈ 15.7 µM)
[6]; antibiotics, MRSA isolate ATCC BAA-1763
  MIC: 50 mg/L (≈ 125 µM)
[6]; antibiotics, MRSA isolate ATCC BAA-1764
  MIC: 25 mg/L (≈ 62.3 µM)
[6]; antibiotics, MRSA isolate ATCC BAA-1766
  MIC: < 6.3 mg/L
[6]; read-out: MRSA MIC, MRSA (ATCC BAA-44), TABLE 21
  MIC: 400 mg/L (≈ 996 µM)
[1]; [16]
  MIC: 20 to 40 mg/L (≈ 49.8 to 99.6 µM)
[7]
  MIC: 0.5 mg/L (≈ 1.25 µM)
[8]
  Resistance Evolved: Yes
[8]; [17]
  MIC: > 8 µM
[8]; [18]
  MIC: 0.25 µM (≈ 0.1 µg/mL)

## Polymyxin E [PME, reference compound]
[9]
  E. Coli MIC: 2 mg/L
[10]
  MIC: 2 mg/L
[11]
  MIC: 16 mg/L
[12]
  MIC: 16 mg/L
[13]
  CRE MIC: 4 mg/L
[14]
  A. baumannii MIC: 0.5 mg/L

## polymyxin B [PMB, reference compound]
[9]
  E. Coli MIC: 2 mg/L
[15]
  PMB @ 0.2 μg/mL: 1.8 × 10^6 CFU/mL
[11]
  MIC: 4 mg/L
[13]
  CRE MIC: 4 mg/L
[14]
  A. baumannii MIC: 4 mg/L
